Assay results published in ChEMBL document CHEMBL5321222, “N(14)-substituted evodiamine derivatives as dual topoisomerase 1/tubulin-Inhibiting anti-gastrointestinal tumor agents” (Eur J Med Chem, 2023).
The source made the active and inactive calls. The calls are words filed in the database; no cut-off is given here.

Assays:
RKO [1] = assay: Induction of apoptosis in human RKO cells assessed as late apoptotic cells at 0.05 uM incubated for 24 hrs by propidium iodide and Annexin V/FITC staining based flow cytometry assay (reference value: 0.50%); assay type: functional
MGC-803 [2] = assay: Induction of morphological changes in human MGC-803 cells assessed as cell shrinkage at 0.05 to 0.2 uM incubated for 24 hrs by Giemsa staining based micrscopic analysis; assay type: functional; details: dose 0.05-0.2 µM
MGC-803 [3] = assay: Induction of apoptosis in human MGC-803 cells assessed as early apoptotic cells at 0.2 uM incubated for 24 hrs by propidium iodide and Annexin V/FITC staining based flow cytometry assay (reference value: 1.85%); assay type: functional
MGC-803 [4] = assay: Antiproliferative activity against human MGC-803 cells assessed as reduction in cell viability incubated for 72 hrs by MTT assay; assay type: functional, cell-based; details: MGC-803, 72 h
MGC-803 [5] = assay: Induction of morphological changes in human MGC-803 cells assessed as cell deformation at 0.05 to 0.2 uM incubated for 24 hrs by Giemsa staining based micrscopic analysis; assay type: functional; details: dose 0.05-0.2 µM
MGC-803 [6] = assay: Induction of cell cycle arrest in human MGC-803 cells assessed as accumulation of cells at G2/M phase at 0.05 uM incubated for 24 hrs by propidium iodide staining based flow cytometry analysis; assay type: functional
RKO [7] = assay: Induction of morphological changes in human RKO cells assessed as formation of apoptotic bodies at 0.05 to 0.2 uM incubated for 24 hrs by Giemsa staining based micrscopic analysis; assay type: functional, cell-based; details: dose 0.05-0.2 µM
MGC-803 [8] = assay: Inhibition of cell […] in human MGC-803 cells at 5 nM incubated for 24 hrs by scratch wound healing assay; assay type: functional, cell-based
[9] = molecular target: T1, DNA topoisomerase 1 (Homo sapiens) (UniProt P11387); assay: Inhibition of topoisomerase 1 (unknown origin) at 50 uM using PBR322 DNA as substrate incubated for 30 mins by agarose gel electrophoresis relative to control
T1 sequence (whole entry): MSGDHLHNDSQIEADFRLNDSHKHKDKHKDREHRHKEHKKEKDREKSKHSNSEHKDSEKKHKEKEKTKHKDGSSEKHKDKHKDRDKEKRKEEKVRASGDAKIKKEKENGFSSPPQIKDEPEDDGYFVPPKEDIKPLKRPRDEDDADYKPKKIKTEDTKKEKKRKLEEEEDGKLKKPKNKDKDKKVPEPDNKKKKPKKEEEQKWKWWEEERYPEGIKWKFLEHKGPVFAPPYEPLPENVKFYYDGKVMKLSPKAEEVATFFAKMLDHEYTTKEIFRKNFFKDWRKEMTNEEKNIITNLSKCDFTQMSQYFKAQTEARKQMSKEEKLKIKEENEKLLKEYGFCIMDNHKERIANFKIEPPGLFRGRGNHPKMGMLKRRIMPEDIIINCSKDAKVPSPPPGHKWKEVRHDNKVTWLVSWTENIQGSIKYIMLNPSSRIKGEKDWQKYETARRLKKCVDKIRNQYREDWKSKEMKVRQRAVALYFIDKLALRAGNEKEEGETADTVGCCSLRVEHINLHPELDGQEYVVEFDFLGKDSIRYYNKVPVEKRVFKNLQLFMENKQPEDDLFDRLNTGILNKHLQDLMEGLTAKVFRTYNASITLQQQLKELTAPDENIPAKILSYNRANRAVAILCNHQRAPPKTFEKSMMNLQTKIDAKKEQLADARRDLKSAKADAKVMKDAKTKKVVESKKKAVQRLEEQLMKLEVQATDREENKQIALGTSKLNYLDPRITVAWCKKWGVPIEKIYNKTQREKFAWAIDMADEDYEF

RKO [10] = assay: Induction of morphological changes in human RKO cells assessed as cell deformation at 0.05 to 0.2 uM incubated for 24 hrs by Giemsa staining based micrscopic analysis; assay type: functional; details: dose 0.05-0.2 µM
SW480 = assay: Antiproliferative activity against human SW480 cells assessed as reduction in cell viability incubated for 72 hrs by MTT assay; assay type: functional, cell-based; details: SW480, 72 h
[11] = molecular target: T1, DNA topoisomerase 1 (Homo sapiens); assay: Inhibition of topoisomerase 1 (unknown origin) at 200 uM using PBR322 DNA as substrate incubated for 30 mins by agarose gel electrophoresis

IC50 (MGC-803 [4]): 90 nM | inhibition [9]: 58.3% | IC50 (SW480): 710 nM | inhibition [11]: Active
SMILES: CCCN1c2ccccc2C(=O)N2CCc3c([nH]c4ccccc34)C21 (configuration not stated)
Activity (RKO [1]): 21.45% | Activity (MGC-803 [2]): Active | Activity (MGC-803 [3]): 12.28% | Activity (MGC-803 [5]): Active | Activity (MGC-803 [6]): 40.55% | Activity (RKO [7]): Active | inhibition (MGC-803 [8]): Active | Activity (RKO [10]): Active
